According to ChEMBL document CHEMBL1201862, “PubChem BioAssay data set” (2004):
Activity calls are given as the source filed them.

Assays:
[1] = nonselective inhibitors of cellular cAMP signaling, dose response, counter-screen for MC4R biased antagonist project, cell-based, TR-FRET cAMP detection (AID 602305); format: functional;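 also: U2OS cells stimulated with forskolin near its EC80 as the cAMP inducer; potency is for inhibition of forskolin-stimulated cAMP signaling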
[2] = molecular target: Heat shock protein HSP 90-alpha (Homo sapiens, UniProt P07900); format: functional, organism-based
[3] = molecular target: Neurotensin receptor type 1 (Homo sapiens, UniProt P30989); format: functional;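 also: Image-based confirmatory dose-response assay measuring agonist activity at NTR1; NTR1-expressing U2OS osteosarcoma cells imaged for beta-arrestin GFP spot formation; agonist potency where compounds increase beta-arrestin recruitment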
Melanocortin receptor 4 = Melanocortin receptor 4 (Homo sapiens, UniProt P32245); experiment: MC4R antagonist potency on cAMP, dose response, cell-based, TR-FRET, biased antagonists (AID 602298); format: functional;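 also: antagonist potency against agonist-stimulated cAMP production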
[4] = molecular target: T1, Microphthalmia-associated transcription factor (Homo sapiens, UniProt O75030); experiment: TRPM1 promoter luciferase signal decrease, dose response, MITF inhibitor project, cell-based, SK-MEL-5, cherry-picked, set 3 (AID 493073); format: functional
T1 sequence (O75030 whole entry): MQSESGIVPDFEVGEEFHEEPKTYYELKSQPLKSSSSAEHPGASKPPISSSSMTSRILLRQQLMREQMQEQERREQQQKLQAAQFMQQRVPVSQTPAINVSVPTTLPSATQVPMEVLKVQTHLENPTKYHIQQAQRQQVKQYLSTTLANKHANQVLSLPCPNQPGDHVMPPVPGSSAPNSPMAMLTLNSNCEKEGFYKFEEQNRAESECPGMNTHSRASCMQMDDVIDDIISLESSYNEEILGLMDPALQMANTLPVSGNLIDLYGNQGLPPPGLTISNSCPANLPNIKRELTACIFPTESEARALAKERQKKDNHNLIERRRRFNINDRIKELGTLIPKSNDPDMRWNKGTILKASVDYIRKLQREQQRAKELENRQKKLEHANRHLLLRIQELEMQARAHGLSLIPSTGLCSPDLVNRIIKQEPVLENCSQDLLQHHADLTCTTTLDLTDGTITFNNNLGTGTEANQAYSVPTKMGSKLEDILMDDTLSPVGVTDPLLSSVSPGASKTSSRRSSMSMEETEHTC

[5] = molecular target: T2, Rac GTPase-activating protein 1 (Homo sapiens, UniProt Q9H0H5); experiment: MgcRacGAP GTPase-activating activity inhibitors, confirmation, biochemical, ADP Hunter fluorescence, primary and confirmatory (AID 624330); format: functional
T2 sequence (Q9H0H5 whole entry): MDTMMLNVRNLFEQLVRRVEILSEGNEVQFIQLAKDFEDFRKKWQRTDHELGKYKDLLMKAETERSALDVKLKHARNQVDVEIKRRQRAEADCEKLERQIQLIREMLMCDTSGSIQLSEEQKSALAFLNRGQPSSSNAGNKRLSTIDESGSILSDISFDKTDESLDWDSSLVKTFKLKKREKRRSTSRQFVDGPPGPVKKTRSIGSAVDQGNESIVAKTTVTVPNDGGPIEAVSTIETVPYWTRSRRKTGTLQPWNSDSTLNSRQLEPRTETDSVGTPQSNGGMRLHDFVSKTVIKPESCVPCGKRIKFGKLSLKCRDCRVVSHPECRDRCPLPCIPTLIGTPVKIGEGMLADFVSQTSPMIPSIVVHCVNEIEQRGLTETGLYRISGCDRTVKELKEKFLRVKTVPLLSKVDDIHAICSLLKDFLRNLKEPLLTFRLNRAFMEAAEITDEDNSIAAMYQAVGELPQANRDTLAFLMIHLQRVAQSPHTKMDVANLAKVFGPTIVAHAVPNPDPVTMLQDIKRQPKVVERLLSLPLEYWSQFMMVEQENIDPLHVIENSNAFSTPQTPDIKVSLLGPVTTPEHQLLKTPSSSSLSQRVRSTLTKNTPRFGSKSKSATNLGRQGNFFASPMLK

[6] = Luminescence Cell-Based Dose Retest to Confirm Inhibitors of Cancer Stem Cells. [Related pubchem assays (depositor defined):AID2717, AID2721]; format: functional; settings: Homo sapiens
[7] = molecular target: T3, Short transient receptor potential channel 4 (Mus musculus, UniProt Q9QUQ5); experiment: mouse TRPC4 channel inhibitors, dose response, cell-based, HEK293 TRPC4/mu-opioid, Fluo-4 calcium (AID 434942); format: functional;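 also: potency of inhibitors blocking the TRPC4 calcium response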
T3 sequence (Q9QUQ5 whole entry): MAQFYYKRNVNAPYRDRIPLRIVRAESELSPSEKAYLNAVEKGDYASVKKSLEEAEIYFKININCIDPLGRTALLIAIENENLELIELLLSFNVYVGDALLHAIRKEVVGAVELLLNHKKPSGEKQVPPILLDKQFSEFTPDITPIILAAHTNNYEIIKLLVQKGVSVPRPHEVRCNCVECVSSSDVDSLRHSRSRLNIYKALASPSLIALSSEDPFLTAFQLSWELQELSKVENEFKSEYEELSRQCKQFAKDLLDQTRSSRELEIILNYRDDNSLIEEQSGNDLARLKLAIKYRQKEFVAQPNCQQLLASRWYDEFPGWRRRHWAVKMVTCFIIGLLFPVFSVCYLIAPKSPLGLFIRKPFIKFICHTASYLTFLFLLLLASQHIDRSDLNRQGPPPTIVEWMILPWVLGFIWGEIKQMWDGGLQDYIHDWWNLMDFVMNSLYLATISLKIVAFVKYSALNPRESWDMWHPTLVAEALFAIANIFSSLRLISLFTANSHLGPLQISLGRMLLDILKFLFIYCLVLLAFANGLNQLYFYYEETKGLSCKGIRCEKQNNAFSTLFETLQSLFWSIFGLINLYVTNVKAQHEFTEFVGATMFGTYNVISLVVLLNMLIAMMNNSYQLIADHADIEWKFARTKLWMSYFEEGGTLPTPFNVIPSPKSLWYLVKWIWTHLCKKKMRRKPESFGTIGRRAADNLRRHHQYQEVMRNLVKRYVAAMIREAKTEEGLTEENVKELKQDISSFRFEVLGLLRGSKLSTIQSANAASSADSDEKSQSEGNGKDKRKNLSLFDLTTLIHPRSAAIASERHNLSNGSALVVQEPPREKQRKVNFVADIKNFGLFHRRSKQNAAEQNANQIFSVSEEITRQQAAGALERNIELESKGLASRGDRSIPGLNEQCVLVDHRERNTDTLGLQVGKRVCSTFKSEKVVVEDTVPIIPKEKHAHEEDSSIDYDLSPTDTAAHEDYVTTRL

[8] = molecular target: T4, Heat shock factor protein 1 (Mus musculus, UniProt P38532); experiment: inhibition of MG132-induced HSE-luciferase signal, confirmation, cell-based, NIH3T3, luminescence, dose retest (AID 2382); format: functional;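 also: NIH3T3 fibroblasts with HSF1-driven luciferase reporter stressed by proteasome inhibitor MG132; luminescence from HSF1-driven luciferase expression after 8 hours of MG132 stress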
T4 sequence (P38532 whole entry): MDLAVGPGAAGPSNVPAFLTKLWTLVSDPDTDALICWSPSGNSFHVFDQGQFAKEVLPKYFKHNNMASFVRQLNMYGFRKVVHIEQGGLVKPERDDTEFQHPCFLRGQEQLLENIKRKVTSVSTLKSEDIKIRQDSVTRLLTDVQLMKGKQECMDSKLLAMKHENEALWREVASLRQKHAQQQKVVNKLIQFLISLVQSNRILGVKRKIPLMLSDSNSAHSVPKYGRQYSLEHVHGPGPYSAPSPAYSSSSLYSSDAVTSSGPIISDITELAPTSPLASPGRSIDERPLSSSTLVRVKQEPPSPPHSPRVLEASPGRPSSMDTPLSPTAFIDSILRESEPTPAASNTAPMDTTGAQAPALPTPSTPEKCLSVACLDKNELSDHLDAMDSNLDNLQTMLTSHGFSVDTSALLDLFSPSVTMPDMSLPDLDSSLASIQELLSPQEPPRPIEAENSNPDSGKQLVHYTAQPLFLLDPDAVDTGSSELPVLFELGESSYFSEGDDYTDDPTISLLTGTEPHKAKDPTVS

Neurotensin receptor type 1, sequence (P30989 whole entry): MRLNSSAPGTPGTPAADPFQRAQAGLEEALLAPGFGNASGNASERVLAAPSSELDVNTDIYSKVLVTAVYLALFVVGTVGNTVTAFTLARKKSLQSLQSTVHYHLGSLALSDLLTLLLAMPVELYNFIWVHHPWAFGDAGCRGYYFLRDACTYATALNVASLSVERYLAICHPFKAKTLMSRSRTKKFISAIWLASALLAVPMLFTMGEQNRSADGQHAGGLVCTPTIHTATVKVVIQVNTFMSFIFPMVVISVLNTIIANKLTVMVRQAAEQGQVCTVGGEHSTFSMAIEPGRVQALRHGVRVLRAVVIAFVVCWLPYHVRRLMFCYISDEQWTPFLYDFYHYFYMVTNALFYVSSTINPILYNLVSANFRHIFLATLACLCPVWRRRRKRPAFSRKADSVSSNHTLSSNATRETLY
Melanocortin receptor 4, sequence (P32245 whole entry): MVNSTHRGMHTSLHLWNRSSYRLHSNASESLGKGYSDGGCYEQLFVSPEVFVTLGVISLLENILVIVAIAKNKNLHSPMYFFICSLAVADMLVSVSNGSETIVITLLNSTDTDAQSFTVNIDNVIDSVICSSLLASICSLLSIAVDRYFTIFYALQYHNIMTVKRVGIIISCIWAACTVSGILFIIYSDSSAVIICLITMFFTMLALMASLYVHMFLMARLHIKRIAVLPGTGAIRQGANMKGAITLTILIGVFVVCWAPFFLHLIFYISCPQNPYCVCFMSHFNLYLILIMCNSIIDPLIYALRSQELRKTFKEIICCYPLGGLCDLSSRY

Row | EC50 [7] | EC50 [8] | Structure (SMILES) | IC50 [1] | AC50 [2] | EC50 [3] | IC50 (Melanocortin receptor 4) | AC50 [4] | IC50 [5] | AC50 [6]
1 | – | – | CN(C)c1ccc(-n2cccc2/C=C/[N+](=O)[O-])cc1 | > 64.6 µM (inactive) | 4.36 µM (active) | 9.06 µM (active) | 12.1 µM (inactive) | 10.2 µM (active) | 43.2 µM (active) | 2.93 µM (active)
2 | 1.06 µM (active) | > 195 µM (not active) | Cc1ccc(OCc2cc(C(=O)N(C)CCc3nc4ccccc4[nH]3)no2)cc1C | – | – | – | – | – | – | –
3 | 0.267 µM (active) | – | Cc1ccc(S(=O)(=O)Nc2cccc(C(=O)NCC(c3ccco3)N3CCCCC3)c2)cc1F (stereo not given) | – | – | – | – | – | – | –
